One experiment has as its target T1, human Cav3.2 T-type Ca2+ channel (Homo sapiens, UniProt O95180).
T1 construct: expressed in transfected cells; host or cells: KJMGER8 cells (Namalwa cell-derived cell line)
The experiment is described as follows: Inhibitory effect for intracellular calcium response via Cav3.2 T-type Ca2+ channels (FLIPR Calcium 3 Assay Kit). Type of experiment: cell-based.
Conditions: not given
For orientation: A change in cytosolic calcium serves as a functional read-out for many receptors and channels.
T1 sequence (O95180 whole entry): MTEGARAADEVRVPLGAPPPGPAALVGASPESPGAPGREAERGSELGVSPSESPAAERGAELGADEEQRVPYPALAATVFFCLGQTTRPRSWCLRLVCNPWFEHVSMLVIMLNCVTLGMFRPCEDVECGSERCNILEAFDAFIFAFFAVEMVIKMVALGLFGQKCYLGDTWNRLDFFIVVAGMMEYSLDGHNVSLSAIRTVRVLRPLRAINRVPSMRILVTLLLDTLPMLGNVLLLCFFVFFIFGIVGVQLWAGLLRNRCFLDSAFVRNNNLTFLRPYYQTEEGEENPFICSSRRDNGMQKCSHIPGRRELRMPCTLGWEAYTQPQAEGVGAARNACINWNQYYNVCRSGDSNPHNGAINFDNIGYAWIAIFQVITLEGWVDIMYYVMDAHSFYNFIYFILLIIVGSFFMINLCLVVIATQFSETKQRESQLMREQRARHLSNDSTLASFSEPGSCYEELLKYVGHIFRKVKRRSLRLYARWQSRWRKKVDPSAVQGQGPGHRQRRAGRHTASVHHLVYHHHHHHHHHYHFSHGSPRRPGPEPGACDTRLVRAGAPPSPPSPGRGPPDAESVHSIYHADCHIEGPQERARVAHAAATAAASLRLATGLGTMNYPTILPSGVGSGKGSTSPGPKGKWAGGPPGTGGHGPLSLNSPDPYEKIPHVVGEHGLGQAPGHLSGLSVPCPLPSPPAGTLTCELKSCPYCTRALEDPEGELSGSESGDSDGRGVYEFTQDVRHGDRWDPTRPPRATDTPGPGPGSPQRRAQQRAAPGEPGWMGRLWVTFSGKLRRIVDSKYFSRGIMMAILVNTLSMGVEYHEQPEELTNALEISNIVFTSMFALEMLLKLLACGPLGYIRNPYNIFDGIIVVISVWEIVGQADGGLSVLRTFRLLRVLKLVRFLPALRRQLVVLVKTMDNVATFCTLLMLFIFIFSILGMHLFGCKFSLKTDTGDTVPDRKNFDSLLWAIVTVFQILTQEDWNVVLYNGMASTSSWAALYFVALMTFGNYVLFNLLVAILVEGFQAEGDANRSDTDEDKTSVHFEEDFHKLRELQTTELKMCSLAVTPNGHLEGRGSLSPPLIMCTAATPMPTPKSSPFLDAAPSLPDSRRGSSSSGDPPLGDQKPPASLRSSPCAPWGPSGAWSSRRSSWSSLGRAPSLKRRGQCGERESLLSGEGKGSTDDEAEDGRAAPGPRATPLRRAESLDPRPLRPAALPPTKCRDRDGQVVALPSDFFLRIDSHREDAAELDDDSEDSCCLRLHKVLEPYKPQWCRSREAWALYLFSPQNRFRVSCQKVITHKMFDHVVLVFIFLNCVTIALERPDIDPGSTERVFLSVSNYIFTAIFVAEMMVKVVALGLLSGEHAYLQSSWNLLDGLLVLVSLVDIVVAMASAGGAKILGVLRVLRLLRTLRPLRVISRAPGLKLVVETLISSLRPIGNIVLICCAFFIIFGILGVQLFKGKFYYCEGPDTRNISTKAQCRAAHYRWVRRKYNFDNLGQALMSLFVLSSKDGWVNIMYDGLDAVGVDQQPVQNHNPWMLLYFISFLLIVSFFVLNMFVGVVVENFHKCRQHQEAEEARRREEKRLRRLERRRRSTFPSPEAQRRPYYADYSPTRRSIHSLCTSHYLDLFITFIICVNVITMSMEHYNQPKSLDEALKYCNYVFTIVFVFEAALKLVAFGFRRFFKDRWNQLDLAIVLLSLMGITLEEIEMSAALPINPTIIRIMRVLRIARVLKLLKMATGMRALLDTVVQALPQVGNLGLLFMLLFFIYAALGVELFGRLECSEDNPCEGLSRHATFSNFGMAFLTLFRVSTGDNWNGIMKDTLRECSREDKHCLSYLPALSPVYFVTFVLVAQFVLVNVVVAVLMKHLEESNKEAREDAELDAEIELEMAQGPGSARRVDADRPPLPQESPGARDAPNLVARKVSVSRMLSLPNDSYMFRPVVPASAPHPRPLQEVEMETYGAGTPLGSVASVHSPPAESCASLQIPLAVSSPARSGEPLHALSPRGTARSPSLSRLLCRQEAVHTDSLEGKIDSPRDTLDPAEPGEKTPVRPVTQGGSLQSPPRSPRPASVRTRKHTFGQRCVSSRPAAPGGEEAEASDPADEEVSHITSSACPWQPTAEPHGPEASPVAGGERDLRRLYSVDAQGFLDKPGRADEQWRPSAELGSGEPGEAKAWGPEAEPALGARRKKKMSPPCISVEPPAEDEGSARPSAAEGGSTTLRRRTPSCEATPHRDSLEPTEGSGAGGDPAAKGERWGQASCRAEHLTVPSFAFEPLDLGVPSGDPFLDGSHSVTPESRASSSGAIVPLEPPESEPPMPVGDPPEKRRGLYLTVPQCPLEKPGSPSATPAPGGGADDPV
Broadly, the IC50 is the concentration that inhibits the measured activity by half. On to `Cc1cc(-c2nc3c([nH]2)CCCC3)cc2nc(C(F)(F)F)c(CC3CCC(F)(F)CC3)n12` [Compound 73, 2-{3-[(4,4-Difluorocyclohexyl)methyl]-5-methyl-2-(trifluoromethyl)imidazo[1,2-a]pyridin-7-yl}-4,5,6,7-tetrahydro-1H-benzo[d]imidazol], for which the concentration for half-maximal inhibition (IC50) was not above 100 nM. The same measure, in the same setting: then `Cc1cc(C(=O)NC2CCCOCC2)cc2nc(C(F)(F)F)c(CC3CCC(F)(F)CC3)n12` (stereo not drawn) [Compound 74, 3-[(4,4-Difluorocyclohexyl)methyl]-5-methyl-N-(oxepan-4-yl)-2-(trifluoromethyl)imidazo[1,2-a]pyridine-7-carboxamide], with not above 100 nM; and `N#Cc1cc(C(=O)NC2CC2)cc2nc(C(F)(F)F)c(CC3CCC(F)(F)CC3)n12` [Compound 76, 5-Cyano-N-cyclopropyl-3-[(4,4-difluorocyclohexyl)methyl]-2-(trifluoromethyl)imidazo[1,2-a]pyridine-7-carboxamide], with not above 100 nM.

Take `O=C(NCC1CC1)c1cc(Cl)n2c(CC3CCC(F)(F)CC3)c(C(F)(F)F)nc2c1` [Compound 77, 5-Chloro-N-(cyclopropylmethyl)-3-[(4,4-difluorocyclohexyl)methyl]-2-(trifluoromethyl)imidazo[1,2-a]pyridine-7-carboxamide]: the half-inhibitory concentration (IC50) is not above 100 nM.

Take `Cc1cc(CC(=O)NC2CCOCC2)cc2nc(C(F)(F)F)c(CC3CCC(F)(F)CC3)n12` [Compound 78, 2-{3-[(4,4-Difluorocyclohexyl)methyl]-5-methyl-2-(trifluoromethyl)imidazo[1,2-a]pyridin-7-yl}-N-(tetrahydro-2H-pyran-4-yl)acetamide]: the IC50 is not above 100 nM. Consider `Cc1cc(C(=O)NC2CC(CO)(CO)C2)cc2nc(C(F)(F)F)c(CC3CCC(F)(F)CC3)n12` [Compound 80, N-[3,3-Bis(hydroxymethyl)cyclobutyl]-3-[(4,4-difluorocyclohexyl)methyl]-5-methyl-2-(trifluoromethyl)imidazo[1,2-a]pyridine-7-carboxamide], for which the IC50 is not above 100 nM. Same read-out and setting: then `CC(C)(NC(=O)c1cc(Cl)n2c(CC3CCC(F)(F)CC3)c(C(F)(F)F)nc2c1)C1CCOCC1` [Compound 81, 5-Chloro-3-[(4,4-difluorocyclohexyl)methyl]-N-[2-(tetrahydro-2H-pyran-4-yl)propan-2-yl]-2-(trifluoromethyl)imidazo[1,2-a]pyridine-7-carboxamide], with not above 100 nM. For the compound `Cc1cc(C(O)C(O)C2CCOCC2)cc2nc(C(F)(F)F)c(CC3CCC(F)(F)CC3)n12` (stereo not drawn) [Compound 82, 1-{3-[(4,4-Difluorocyclohexyl)methyl]-5-methyl-2-(trifluoromethyl)imidazo[1,2-a]pyridin-7-yl}-2-(tetrahydro-2H-pyran-4-yl)ethane-1,2-diol], the half-maximal inhibitory concentration (IC50) is not above 100 nM. Still for that read-out and setting: then `Cc1cc(CC(=O)NOC2CCOCC2)cc2nc(C(F)(F)F)c(CC3CCC(F)(F)CC3)n12` [Compound 84, 2-{3-[(4,4-Difluorocyclohexyl)methyl]-5-methyl-2-(trifluoromethyl)imidazo[1,2-a]pyridin-7-yl}-N-(tetrahydro-2H-pyran-4-yloxy)acetamide], with not above 100 nM. Still for that read-out and setting: then `O=C(NCC1(O)CCOCC1)c1cc(Cl)n2c(CC3CCC(F)(F)CC3)c(C(F)(F)F)nc2c1` [Compound 86, 5-Chloro-3-[(4,4-difluorocyclohexyl)methyl]-N-[(4-hydroxytetrahydro-2H-pyran-4-yl)methyl]-2-(trifluoromethyl)imidazo[1,2-a]pyridine-7-carboxamide], with not above 100 nM; and `Cc1cc(C(=O)NC2CC3(COC3)C2)cc2nc(C(F)(F)F)c(CC3CCC(F)(F)CC3)n12` [Compound 88, 3-[(4,4-Difluorocyclohexyl)methyl]-5-methyl-N-(2-oxaspiro[3.3]heptan-6-yl)-2-(trifluoromethyl)imidazo[1,2-a]pyridine-7-carboxamide], with not above 100 nM; and `Cc1cc(C(C)C(=O)NC2CCOCC2)cc2nc(C(F)(F)F)c(CC3CCC(F)(F)CC3)n12` (stereo not drawn) [Compound 89, 2-{3-[(4,4-Difluorocyclohexyl)methyl]-5-methyl-2-(trifluoromethyl)imidazo[1,2-a]pyridin-7-yl}-N-(tetrahydro-2H-pyran-4-yl)propanamide], with not above 100 nM. Turning to `Cc1cc(C(O)C(O)c2ccccc2)cc2nc(C(F)(F)F)c(CC3CCC(F)(F)CC3)n12` (stereo not drawn) [Compound 94, 1-{3-[(4,4-Difluorocyclohexyl)methyl]-5-methyl-2-(trifluoromethyl)imidazo[1,2-a]pyridin-7-yl}-2-phenylethane-1,2-diol], the half-inhibitory concentration (IC50) was not above 100 nM.

Regarding `O=C(NC1CC(CO)(CO)C1)c1cc(Cl)n2c(CC3CCC(F)(F)CC3)c(C(F)(F)F)nc2c1` [Compound 95, N-[3,3-Bis(hydroxymethyl)cyclobutyl]-5-chloro-3-[(4,4-difluorocyclohexyl)methyl]-2-(trifluoromethyl)imidazo[1,2-a]pyridine-7-carboxamide], the IC50 is not above 100 nM. On the same count and under the same terms, next, `O=C(NCc1ccncc1)c1cc(Cl)n2c(CC3CCC(F)(F)CC3)c(C(F)(F)F)nc2c1` [Compound 97]: not above 100 nM; `O=C(NCc1ccccc1)c1cc(Cl)n2c(CC3CCC(F)(F)CC3)c(C(F)(F)F)nc2c1` [Compound 98, N-Benzyl-5-chloro-3-[(4,4-difluorocyclohexyl)methyl]-2-(trifluoromethyl)imidazo[1,2-a]pyridine-7-carboxamide]: not above 100 nM. As to `O=C(NCCN1CCCCC1)c1cc(Cl)n2c(CC3CCC(F)(F)CC3)c(C(F)(F)F)nc2c1` [Compound 99, 5-Chloro-3-[(4,4-difluorocyclohexyl)methyl]-N-[2-(piperidin-1-yl)ethyl]-2-(trifluoromethyl)imidazo[1,2-a]pyridine-7-carboxamide], the IC50 was not above 100 nM. On the same count and under the same terms, then `O=C(NCCCn1ccnc1)c1cc(Cl)n2c(CC3CCC(F)(F)CC3)c(C(F)(F)F)nc2c1` [Compound 100, N-[3-(1H-Imidazol-1-yl)propyl]-5-chloro-3-[(4,4-difluorocyclohexyl)methyl]-2-(trifluoromethyl)imidazo[1,2-a]pyridine-7-carboxamide], with not above 100 nM; and `O=C(NCCc1c[nH]cn1)c1cc(Cl)n2c(CC3CCC(F)(F)CC3)c(C(F)(F)F)nc2c1` [Compound 104], with not above 100 nM; and `O=C(NCc1ccccn1)c1cc(Cl)n2c(CC3CCC(F)(F)CC3)c(C(F)(F)F)nc2c1` [Compound 106], with not above 100 nM. The same measure, in the same setting: then `CCOC(=O)CNC(=O)c1cc(Cl)n2c(CC3CCC(F)(F)CC3)c(C(F)(F)F)nc2c1` [Compound 110, Ethyl 2-{5-chloro-3-[(4,4-difluorocyclohexyl)methyl]-2-(trifluoromethyl)imidazo[1,2-a]pyridine-7-carboxamide}acetate], with not above 100 nM; and `CC(C)(C)OC(=O)NCCNC(=O)c1cc(Cl)n2c(CC3CCC(F)(F)CC3)c(C(F)(F)F)nc2c1` [Compound 115, tert-Butyl 2-{5-chloro-3-[(4,4-difluorocyclohexyl)methyl]-2-(trifluoromethyl)imidazo[1,2-a]pyridine-7-carboxamide}ethylcarbamate], with not above 100 nM.

The same experiment, now with this note: human Cav3.2-expressing KJMGER8 cells (Namalwa-derived); calcium response induced by 5 mmol/L CaCl2; 3 μmol/L mibefradil as reference; read-out: IC50 for the human Cav3.2 T-type Ca2+ current.
On to `Cc1cc(C(=O)NC2(C3CCOCC3)CC2)cc2nc(C(F)(F)F)c(CC3CCC(F)(F)CC3)n12` [Compound 75, 3-[(4,4-Difluorocyclohexyl)methyl]-5-methyl-N-[1-(tetrahydro-2H-pyran-4-yl)cyclopropyl]-2-(trifluoromethyl)imidazo[1,2-a]pyridine-7-carboxamide], for which the 50% inhibitory concentration (IC50) is not above 100 nM. On the same count and under the same terms, then `Cc1cc(C(=O)C(O)C2CCOCC2)cc2nc(C(F)(F)F)c(CC3CCC(F)(F)CC3)n12` (stereo not drawn) [Compound 83, 1-{3-[(4,4-Difluorocyclohexyl)methyl]-5-methyl-2-(trifluoromethyl)imidazo[1,2-a]pyridin-7-yl}-2-hydroxy-2-(tetrahydro-2H-pyran-4-yl)ethanone], with not above 100 nM; and `Cc1cc(CC(=O)Nc2ccccc2N)cc2nc(C(F)(F)F)c(CC3CCC(F)(F)CC3)n12` [Compound 85, N-(2-Aminophenyl)-2-{3-[(4,4-difluorocyclohexyl)methyl]-5-methyl-2-(trifluoromethyl)imidazo[1,2-a]pyridin-7-yl}acetamide], with not above 100 nM; and `Cc1cc(Cc2nc3ccccc3[nH]2)cc2nc(C(F)(F)F)c(CC3CCC(F)(F)CC3)n12` [Compound 87, 2-({3-[(4,4-Difluorocyclohexyl)methyl]-5-methyl-2-(trifluoromethyl)imidazo[1,2-a]pyridin-7-yl}methyl)-1H-benzo[d]imidazol], with not above 100 nM.

With `O=C(NCc1cccc(O)c1)c1cc(Cl)n2c(CC3CCC(F)(F)CC3)c(C(F)(F)F)nc2c1` [Compound 103, 5-Chloro-3-[(4,4-difluorocyclohexyl)methyl]-N-(3-hydroxybenzyl)-2-(trifluoromethyl)imidazo[1,2-a]pyridine-7-carboxamide], the IC50 was not above 100 nM. The same measure, in the same setting: next, `O=C(NCCN(CCO)CCO)c1cc(Cl)n2c(CC3CCC(F)(F)CC3)c(C(F)(F)F)nc2c1` [Compound 109, N-{2-[Bis(2-hydroxyethyl)amino]ethyl}-5-chloro-3-[(4,4-difluorocyclohexyl)methyl]-2-(trifluoromethyl)imidazo[1,2-a]pyridine-7-carboxamide]: not above 100 nM.

Turning to `Cc1cc(C(O)c2nc3ccccc3[nH]2)cc2nc(C(F)(F)F)c(CC3CCC(F)(F)CC3)n12` (stereo not drawn) [Compound 112, (1H-Benzo[d]imidazol-2-yl){3-[(4,4-difluorocyclohexyl)methyl]-5-methyl-2-(trifluoromethyl)imidazo[1,2-a]pyridin-7-yl}methanol], the IC50 was not above 100 nM. `Cc1cc(C(O)c2nc3ccccc3n2C)cc2nc(C(F)(F)F)c(CC3CCC(F)(F)CC3)n12` (stereo not drawn) [Compound 120, {3-[(4,4-Difluorocyclohexyl)methyl]-5-methyl-2-(trifluoromethyl)imidazo[1,2-a]pyridin-7-yl}(1-methyl-1H-benzo[d]imidazol-2-yl)methanol]: the IC50 is not above 100 nM.

For the origin of these results see patent US9540366B2, “Ring-fused heterocyclic compound” (Kyowa Hakko Kirin Co., Ltd., priority 2012, dated 2017).
